Data published in PMC8500837, “The tertiary structure of the human Xkr8–Basigin complex that scrambles phospholipids at plasma membranes” (Nature Structural & Molecular Biology, 2021).
Where a chain is given by its changes, count along the chain named. Structures can show the parent of a compound that is named as a salt.

How the values were obtained:
[1] = biological target: T1, mXkr8 (mXkr8-GFP; mXkr8–BSG complex) (Mus musculus, UniProt Q8C0T0); test: flow cytometry of NBD-SM internalization (BSA back-extraction) in Ba/F3 transformants; type: cell-based; settings: 0.5 µM NBD-SM, 4 °C or 20 °C, labelled compound; lipid scrambling outer to inner leaflet
T1 construct: gene Xkr8; full length, C-terminal GFP tag, stably expressed in TMEM16F-/- Xkr8-/- mouse Ba/F3 cells; endogenous Basigin (or Neuroplastin) as partner; with Basigin
T1 sequence (Q8C0T0 1-401): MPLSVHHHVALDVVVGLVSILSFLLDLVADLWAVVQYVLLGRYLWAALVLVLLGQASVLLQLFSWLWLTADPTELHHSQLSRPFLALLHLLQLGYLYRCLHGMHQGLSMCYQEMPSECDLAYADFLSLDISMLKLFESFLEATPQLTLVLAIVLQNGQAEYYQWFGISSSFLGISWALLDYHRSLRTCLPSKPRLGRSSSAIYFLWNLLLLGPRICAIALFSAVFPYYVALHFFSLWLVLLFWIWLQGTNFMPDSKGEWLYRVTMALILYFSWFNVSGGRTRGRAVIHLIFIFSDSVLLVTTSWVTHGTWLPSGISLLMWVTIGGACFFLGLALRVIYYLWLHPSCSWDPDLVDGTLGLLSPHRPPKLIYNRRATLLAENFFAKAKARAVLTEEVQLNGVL
T1 sequence (P18572 22-389 partner): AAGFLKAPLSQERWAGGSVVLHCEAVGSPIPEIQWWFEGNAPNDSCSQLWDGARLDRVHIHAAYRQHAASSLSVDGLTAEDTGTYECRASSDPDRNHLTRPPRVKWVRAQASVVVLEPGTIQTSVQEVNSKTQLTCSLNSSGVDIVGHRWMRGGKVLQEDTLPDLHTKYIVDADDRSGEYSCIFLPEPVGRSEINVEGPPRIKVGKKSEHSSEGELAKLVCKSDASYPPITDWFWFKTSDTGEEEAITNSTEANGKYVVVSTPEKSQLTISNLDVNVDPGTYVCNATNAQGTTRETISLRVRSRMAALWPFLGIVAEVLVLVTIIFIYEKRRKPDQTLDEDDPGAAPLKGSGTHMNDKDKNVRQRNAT

[2] = biological target: T2, mXkr8 (mXkr8-GFP; mXkr8–BSG complex) (Mus musculus, UniProt Q8C0T0, W45A); test: as above; type: cell-based; settings: 0.5 µM NBD-SM, 20 °C, labelled compound; constitutively active mutant
T2 construct: gene Xkr8; full length, C-terminal GFP tag, stably expressed in TMEM16F-/- Xkr8-/- mouse Ba/F3 cells; endogenous Basigin (or Neuroplastin) as partner; with Basigin
T2 sequence (Q8C0T0 1-401 W45A): T1 sequence (Q8C0T0 1-401) with W45A
T2 sequence (P18572 22-389 partner): T1 sequence (P18572 22-389 partner)

fold internalization vs wild type [2]: ~ 3 fold
SMILES: CCCCCCCCCCCCC/C=C/[C@@H](O)[C@H](COP(=O)([O-])OCC[N+](C)(C)C)NC(=O)CCCCCNc1ccc([N+](=O)[O-])c2nonc12 [NBD-SM, (7S)-4-hydroxy-7-[(1R,2E)-1-hydroxy-2-hexadecen-1-yl]-N,N,N-trimethyl-14-[(7-nitro-2,1,3-benzoxadiazol-4-yl)amino]-9-oxo-3,5-dioxa-8-aza-4-phosphatetradecan-1-aminium, 4-oxide inner salt]
flow cytometry of NBD-SM internalization (BSA back-extraction) in Ba/F3 transfor [1]: Ba/F3 cell transformants expressing wild-type Xkr8 efficiently incorporated NBD-SM
